Assay results as given in publication PMC5290327, “SC83288 is a clinical development candidate for the treatment of severe malaria” (Nature Communications, 2017).

Columns and labels:
Assay in all cases: KINOMEscan
Assay type in all cases: binding
Conditions in all cases: read-out: Remaining enzyme activity
[1] = target: T1, p38-delta (Homo sapiens, UniProt O15264)
T1 construct: purchased Ambit (DiscoverX) KINOMEscan; Cerep
In short: (§1)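 Kinase preparations were T7 phage fusions produced in E. coli (32 °C until lysis, lysates clarified) or HEK-293-expressed proteins with DNA tags. These were mixed with immobilized active-site ligand and SC81458 at 10 μM. The amount of kinase in eluates was determined by qPCR.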

[2] = target: T2, ERK2 (Homo sapiens, UniProt P28482)
T2 construct: purchased Ambit (DiscoverX) KINOMEscan; Cerep
In short: as §1

[3] = target: T3, ICK (Homo sapiens, UniProt Q9UPZ9)
T3 construct: purchased Ambit (DiscoverX) KINOMEscan; Cerep
In short: as §1

[4] = target: T4, MEK6 (Homo sapiens, UniProt P52564)
T4 construct: purchased Ambit (DiscoverX) KINOMEscan; Cerep
T4 sequence (P52564 whole entry): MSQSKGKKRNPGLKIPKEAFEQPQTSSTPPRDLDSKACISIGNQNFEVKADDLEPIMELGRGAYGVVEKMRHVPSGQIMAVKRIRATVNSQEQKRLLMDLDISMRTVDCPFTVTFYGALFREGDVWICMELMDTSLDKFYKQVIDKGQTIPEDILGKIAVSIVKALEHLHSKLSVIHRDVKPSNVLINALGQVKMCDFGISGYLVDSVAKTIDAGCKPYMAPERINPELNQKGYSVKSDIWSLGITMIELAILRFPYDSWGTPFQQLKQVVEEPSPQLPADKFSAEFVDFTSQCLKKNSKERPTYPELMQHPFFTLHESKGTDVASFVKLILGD
In short: as §1

[5] = target: T5, SRMS (Homo sapiens, UniProt Q9H3Y6)
T5 construct: purchased Ambit (DiscoverX) KINOMEscan; Cerep
In short: as §1

[6] = target: T6, DLK (Homo sapiens, UniProt Q12852)
T6 construct: purchased Ambit (DiscoverX) KINOMEscan; Cerep
In short: as §1

[7] = target: T7, RPS6KA3(Kin.Dom.1-N-term) (Homo sapiens, UniProt P51812)
T7 construct: RPS6KA3(Kin.Dom.1-N-term); purchased Ambit (DiscoverX) KINOMEscan; Cerep
In short: as §1

[8] = target: T8, CDK8 (Homo sapiens, UniProt P49336)
T8 construct: purchased Ambit (DiscoverX) KINOMEscan; Cerep
In short: as §1

[9] = target: T9, RET(V804M) (Homo sapiens, UniProt P07949, V804M)
T9 construct: purchased Ambit (DiscoverX) KINOMEscan; Cerep
In short: as §1

[10] = target: T10, RET(M918T) (Homo sapiens, UniProt P07949, M918T)
T10 construct: purchased Ambit (DiscoverX) KINOMEscan; Cerep
In short: as §1

[11] = target: T11, CSF1R (Homo sapiens, UniProt P07333)
T11 construct: purchased Ambit (DiscoverX) KINOMEscan; Cerep
In short: as §1

[12] = target: T12, TESK1 (Homo sapiens, UniProt Q15569)
T12 construct: purchased Ambit (DiscoverX) KINOMEscan; Cerep
In short: as §1

[13] = target: T13, TNNI3K (Homo sapiens, UniProt Q59H18)
T13 construct: purchased Ambit (DiscoverX) KINOMEscan; Cerep
T13 sequence (Q59H18 whole entry): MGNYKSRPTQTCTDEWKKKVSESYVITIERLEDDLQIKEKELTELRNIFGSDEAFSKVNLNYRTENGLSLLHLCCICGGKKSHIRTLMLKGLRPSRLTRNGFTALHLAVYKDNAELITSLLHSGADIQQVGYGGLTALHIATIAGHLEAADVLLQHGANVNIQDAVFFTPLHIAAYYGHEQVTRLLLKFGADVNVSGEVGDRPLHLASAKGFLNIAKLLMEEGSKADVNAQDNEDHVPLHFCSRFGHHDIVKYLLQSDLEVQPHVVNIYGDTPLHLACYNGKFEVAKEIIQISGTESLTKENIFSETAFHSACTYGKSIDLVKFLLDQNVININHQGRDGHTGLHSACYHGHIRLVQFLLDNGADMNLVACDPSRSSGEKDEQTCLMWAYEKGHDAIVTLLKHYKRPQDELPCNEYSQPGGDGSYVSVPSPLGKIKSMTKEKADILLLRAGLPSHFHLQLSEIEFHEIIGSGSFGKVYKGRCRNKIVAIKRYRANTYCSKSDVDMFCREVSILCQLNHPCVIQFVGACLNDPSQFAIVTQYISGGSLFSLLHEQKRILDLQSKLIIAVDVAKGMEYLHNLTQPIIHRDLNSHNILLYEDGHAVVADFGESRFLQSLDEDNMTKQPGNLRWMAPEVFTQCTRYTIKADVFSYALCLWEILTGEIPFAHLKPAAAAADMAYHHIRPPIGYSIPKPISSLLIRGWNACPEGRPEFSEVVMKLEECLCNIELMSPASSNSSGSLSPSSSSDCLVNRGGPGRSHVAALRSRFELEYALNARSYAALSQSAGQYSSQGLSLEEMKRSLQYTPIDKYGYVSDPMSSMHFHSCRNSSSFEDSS
In short: as §1

[14] = target: T14, AURKA (Homo sapiens, UniProt O14965)
T14 construct: purchased Ambit (DiscoverX) KINOMEscan; Cerep
In short: as §1

[15] = target: T15, MAP3K3 (Homo sapiens, UniProt Q99759)
T15 construct: purchased Ambit (DiscoverX) KINOMEscan; Cerep
In short: as §1

[16] = target: T16, PIK3C2g (Homo sapiens, UniProt O75747)
T16 construct: purchased Ambit (DiscoverX) KINOMEscan; Cerep
T16 sequence (O75747 whole entry): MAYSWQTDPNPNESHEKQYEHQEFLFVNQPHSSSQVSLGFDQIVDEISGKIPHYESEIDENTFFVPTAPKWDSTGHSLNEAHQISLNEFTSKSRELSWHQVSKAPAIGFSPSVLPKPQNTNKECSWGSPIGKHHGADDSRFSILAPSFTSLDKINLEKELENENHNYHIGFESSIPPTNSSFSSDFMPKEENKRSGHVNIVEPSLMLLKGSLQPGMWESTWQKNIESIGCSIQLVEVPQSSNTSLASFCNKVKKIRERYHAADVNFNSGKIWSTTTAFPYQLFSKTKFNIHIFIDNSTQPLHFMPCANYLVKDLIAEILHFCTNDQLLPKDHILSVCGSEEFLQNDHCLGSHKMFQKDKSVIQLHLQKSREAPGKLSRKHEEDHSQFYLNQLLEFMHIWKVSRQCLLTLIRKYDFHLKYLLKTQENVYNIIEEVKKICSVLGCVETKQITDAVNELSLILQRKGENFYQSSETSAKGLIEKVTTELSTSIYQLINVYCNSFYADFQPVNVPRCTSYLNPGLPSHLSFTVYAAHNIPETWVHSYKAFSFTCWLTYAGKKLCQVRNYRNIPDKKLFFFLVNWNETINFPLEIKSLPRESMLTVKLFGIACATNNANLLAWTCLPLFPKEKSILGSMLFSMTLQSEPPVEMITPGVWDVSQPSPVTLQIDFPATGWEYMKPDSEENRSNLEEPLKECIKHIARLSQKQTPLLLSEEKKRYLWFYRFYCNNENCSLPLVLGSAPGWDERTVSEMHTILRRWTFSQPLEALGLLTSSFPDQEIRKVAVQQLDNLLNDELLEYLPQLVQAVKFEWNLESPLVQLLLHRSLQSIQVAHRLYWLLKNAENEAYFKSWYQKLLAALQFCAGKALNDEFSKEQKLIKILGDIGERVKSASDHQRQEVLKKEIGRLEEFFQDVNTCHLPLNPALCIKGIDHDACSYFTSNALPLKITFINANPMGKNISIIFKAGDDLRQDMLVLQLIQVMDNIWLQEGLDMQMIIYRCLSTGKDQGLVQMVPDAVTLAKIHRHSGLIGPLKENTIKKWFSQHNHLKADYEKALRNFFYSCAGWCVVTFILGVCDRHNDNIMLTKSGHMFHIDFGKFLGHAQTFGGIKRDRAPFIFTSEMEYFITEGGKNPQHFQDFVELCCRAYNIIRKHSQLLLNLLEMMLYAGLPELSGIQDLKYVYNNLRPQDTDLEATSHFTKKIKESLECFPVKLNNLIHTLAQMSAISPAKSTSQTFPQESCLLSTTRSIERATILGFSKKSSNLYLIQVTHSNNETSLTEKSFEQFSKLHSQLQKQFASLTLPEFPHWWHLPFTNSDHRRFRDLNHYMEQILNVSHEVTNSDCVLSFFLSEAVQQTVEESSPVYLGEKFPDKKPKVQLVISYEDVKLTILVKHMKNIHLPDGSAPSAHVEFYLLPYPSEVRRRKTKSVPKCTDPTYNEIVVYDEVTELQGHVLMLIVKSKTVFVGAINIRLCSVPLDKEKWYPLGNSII
In short: as §1

[17] = target: T17, BIKE (Homo sapiens, UniProt Q9NSY1)
T17 construct: purchased Ambit (DiscoverX) KINOMEscan; Cerep
In short: as §1

[18] = target: T18, BRK (Homo sapiens, UniProt Q13882)
T18 construct: purchased Ambit (DiscoverX) KINOMEscan; Cerep
T18 sequence (Q13882 whole entry): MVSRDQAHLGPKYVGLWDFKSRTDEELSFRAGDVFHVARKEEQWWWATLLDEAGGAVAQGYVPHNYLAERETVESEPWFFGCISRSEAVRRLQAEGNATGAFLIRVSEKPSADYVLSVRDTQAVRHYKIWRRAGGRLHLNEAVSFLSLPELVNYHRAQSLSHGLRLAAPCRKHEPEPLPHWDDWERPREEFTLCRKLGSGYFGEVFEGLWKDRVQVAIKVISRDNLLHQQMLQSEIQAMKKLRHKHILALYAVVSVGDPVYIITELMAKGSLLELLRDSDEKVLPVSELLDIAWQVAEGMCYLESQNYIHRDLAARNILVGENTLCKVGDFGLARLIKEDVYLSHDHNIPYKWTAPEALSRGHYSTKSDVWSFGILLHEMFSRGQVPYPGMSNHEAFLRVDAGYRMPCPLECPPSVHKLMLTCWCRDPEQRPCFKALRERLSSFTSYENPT
In short: as §1

[19] = target: T19, SRPK1 (Homo sapiens, UniProt Q96SB4)
T19 construct: purchased Ambit (DiscoverX) KINOMEscan; Cerep
In short: as §1

[20] = target: T20, MARK4 (Homo sapiens, UniProt Q96L34)
T20 construct: purchased Ambit (DiscoverX) KINOMEscan; Cerep
In short: as §1

[21] = target: T21, EPHB3 (Homo sapiens, UniProt P54753)
T21 construct: purchased Ambit (DiscoverX) KINOMEscan; Cerep
In short: as §1

[22] = target: T22, MYO3b (Homo sapiens, UniProt Q8WXR4)
T22 construct: purchased Ambit (DiscoverX) KINOMEscan; Cerep
T22 sequence (Q8WXR4 whole entry): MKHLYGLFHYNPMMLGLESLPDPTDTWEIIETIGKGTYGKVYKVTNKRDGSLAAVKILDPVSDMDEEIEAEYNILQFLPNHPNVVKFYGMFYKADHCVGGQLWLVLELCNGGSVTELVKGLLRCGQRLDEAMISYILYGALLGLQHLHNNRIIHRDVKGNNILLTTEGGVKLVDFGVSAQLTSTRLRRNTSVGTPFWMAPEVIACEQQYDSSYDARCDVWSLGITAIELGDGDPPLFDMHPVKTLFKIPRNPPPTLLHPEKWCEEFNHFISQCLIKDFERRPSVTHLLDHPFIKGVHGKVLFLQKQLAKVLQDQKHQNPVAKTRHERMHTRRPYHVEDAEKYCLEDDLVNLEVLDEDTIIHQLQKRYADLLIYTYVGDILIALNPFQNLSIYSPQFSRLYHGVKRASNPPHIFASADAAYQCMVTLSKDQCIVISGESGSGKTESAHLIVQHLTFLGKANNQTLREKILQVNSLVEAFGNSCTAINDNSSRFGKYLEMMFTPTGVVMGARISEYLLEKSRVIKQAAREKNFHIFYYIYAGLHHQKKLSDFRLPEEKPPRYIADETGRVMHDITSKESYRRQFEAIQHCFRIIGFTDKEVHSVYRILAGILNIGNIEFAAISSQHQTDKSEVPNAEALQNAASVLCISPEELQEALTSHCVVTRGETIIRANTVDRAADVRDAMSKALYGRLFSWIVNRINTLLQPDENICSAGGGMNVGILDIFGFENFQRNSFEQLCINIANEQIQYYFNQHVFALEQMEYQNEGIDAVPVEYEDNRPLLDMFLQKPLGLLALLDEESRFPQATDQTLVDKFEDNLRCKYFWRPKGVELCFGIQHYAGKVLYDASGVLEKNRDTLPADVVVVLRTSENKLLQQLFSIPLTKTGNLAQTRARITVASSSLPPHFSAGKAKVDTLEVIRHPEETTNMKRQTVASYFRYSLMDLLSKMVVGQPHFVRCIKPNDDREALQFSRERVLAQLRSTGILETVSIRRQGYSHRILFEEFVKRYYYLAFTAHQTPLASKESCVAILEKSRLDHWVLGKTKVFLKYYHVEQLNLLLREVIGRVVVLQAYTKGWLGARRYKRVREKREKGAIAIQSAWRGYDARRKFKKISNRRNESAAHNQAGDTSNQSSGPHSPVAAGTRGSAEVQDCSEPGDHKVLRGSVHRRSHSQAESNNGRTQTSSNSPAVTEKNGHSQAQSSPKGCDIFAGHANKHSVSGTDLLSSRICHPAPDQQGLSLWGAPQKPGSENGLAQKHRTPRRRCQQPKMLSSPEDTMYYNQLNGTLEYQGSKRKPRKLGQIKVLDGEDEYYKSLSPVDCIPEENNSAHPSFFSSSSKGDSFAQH
In short: as §1

[23] = target: T23, PAK1 (Homo sapiens, UniProt Q13153)
T23 construct: purchased Ambit (DiscoverX) KINOMEscan; Cerep
In short: as §1

[24] = target: T24, CDKL2 (Homo sapiens, UniProt Q92772)
T24 construct: purchased Ambit (DiscoverX) KINOMEscan; Cerep
In short: as §1

[25] = target: T25, MST4 (Homo sapiens, UniProt Q9P289)
T25 construct: purchased Ambit (DiscoverX) KINOMEscan; Cerep
In short: as §1

[26] = target: T26, YANK3 (Homo sapiens, UniProt Q86UX6)
T26 construct: purchased Ambit (DiscoverX) KINOMEscan; Cerep
In short: as §1

[27] = target: T27, CSNK1g1 (Homo sapiens, UniProt Q9HCP0)
T27 construct: purchased Ambit (DiscoverX) KINOMEscan; Cerep
In short: as §1

[28] = target: T28, PAK7 (Homo sapiens, UniProt Q9P286)
T28 construct: purchased Ambit (DiscoverX) KINOMEscan; Cerep
In short: as §1

[29] = target: T29, TIE1 (Homo sapiens, UniProt P35590)
T29 construct: purchased Ambit (DiscoverX) KINOMEscan; Cerep
In short: as §1

[30] = target: T30, BMPR2 (Homo sapiens, UniProt Q13873)
T30 construct: purchased Ambit (DiscoverX) KINOMEscan; Cerep
In short: as §1

[31] = target: T31, TXK (Homo sapiens, UniProt P42681)
T31 construct: purchased Ambit (DiscoverX) KINOMEscan; Cerep
T31 sequence (P42681 whole entry): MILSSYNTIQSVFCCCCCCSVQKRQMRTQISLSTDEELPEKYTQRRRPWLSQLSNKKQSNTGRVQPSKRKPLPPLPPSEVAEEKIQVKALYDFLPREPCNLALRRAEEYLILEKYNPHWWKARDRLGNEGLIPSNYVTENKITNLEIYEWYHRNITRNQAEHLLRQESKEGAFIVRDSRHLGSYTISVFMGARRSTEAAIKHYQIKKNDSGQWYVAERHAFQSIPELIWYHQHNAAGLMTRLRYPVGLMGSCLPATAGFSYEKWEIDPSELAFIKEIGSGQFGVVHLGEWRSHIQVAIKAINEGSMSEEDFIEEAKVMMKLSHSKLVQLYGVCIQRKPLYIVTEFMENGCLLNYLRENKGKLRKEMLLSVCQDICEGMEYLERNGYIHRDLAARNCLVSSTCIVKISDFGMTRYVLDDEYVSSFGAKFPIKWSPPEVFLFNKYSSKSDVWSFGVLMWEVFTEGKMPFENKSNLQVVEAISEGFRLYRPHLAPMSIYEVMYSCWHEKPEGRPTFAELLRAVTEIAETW
In short: as §1

[32] = target: T32, FLT3(N841I) (Homo sapiens, UniProt P36888, N841I)
T32 construct: purchased Ambit (DiscoverX) KINOMEscan; Cerep
In short: as §1

[33] = target: T33, CAMK2a (Homo sapiens, UniProt Q9UQM7)
T33 construct: purchased Ambit (DiscoverX) KINOMEscan; Cerep
In short: as §1

[34] = target: T34, CDK5 (Homo sapiens, UniProt Q00535)
T34 construct: purchased Ambit (DiscoverX) KINOMEscan; Cerep
In short: as §1

Work on `CCCCN1CCN(C(=N)c2cccc(NC(=O)Nc3ccc(S(=O)(=O)NCc4ccc(S(N)(=O)=O)cc4)cc3)c2)CC1` [SC81458, 4-(3-(3-((4-butylpiperazin-1-yl)(imino)methyl)phenyl)ureido)-N-(4-sulfamoylbenzyl) benzenesulfonamide] yielded a remaining binding at 10 µM [1] of 89%, a remaining binding at 10 µM [2] of 80% and a remaining binding at 10 µM [3] of 73%. It also gave a remaining binding at 10 µM [4] of 81%, a remaining binding at 10 µM [5] of 79% and a remaining binding at 10 µM [6] of 100%. The remaining binding at 10 µM [7] was 100%, the remaining binding at 10 µM [8] was 100% and the remaining binding at 10 µM [9] was 100%. For the same compound, the remaining binding at 10 µM [10] was 100%, the remaining binding at 10 µM [11] was 82% and the remaining binding at 10 µM [12] was 100%. It also gave a remaining binding at 10 µM [13] of 100%, a remaining binding at 10 µM [14] of 68% and a remaining binding at 10 µM [15] of 100%. The remaining binding at 10 µM [16] was 100%, the remaining binding at 10 µM [17] was 85% and the remaining binding at 10 µM [18] was 100%. It also gave a remaining binding at 10 µM [19] of 100%, a remaining binding at 10 µM [20] of 100% and a remaining binding at 10 µM [21] of 98%. The remaining binding at 10 µM [22] was 100%, the remaining binding at 10 µM [23] was 100% and the remaining binding at 10 µM [24] was 100%. It also gave a remaining binding at 10 µM [25] of 100%, a remaining binding at 10 µM [26] of 97% and a remaining binding at 10 µM [27] of 100%. It also gave a remaining binding at 10 µM [28] of 100%, a remaining binding at 10 µM [29] of 99% and a remaining binding at 10 µM [30] of 100%. For the same compound, the remaining binding at 10 µM [31] was 87%, the remaining binding at 10 µM [32] was 100% and the remaining binding at 10 µM [33] was 100%. For the same compound, the remaining binding at 10 µM [34] was 100%.
